The record followed here is patent US20250049747A1, “USE OF HYPERPOLARIZING AGENTS ALONE AND IN COMBINATION WITH OTHER THERAPEUTIC AGENTS FOR TREATING CANCERS INCLUDING GLIOBLASTOMA” (Trustees of Tufts College, priority 2021, published 2025).

Experiment [1] relates to human glioblastoma U87 cells. In words: Growth and FUCCI assays in U87 cells (cell counts, cell cycle, recovery test). In kind it is cell-based. The conditions noted are these: for FUCCI cell cycle proportion: U87, day 6; for recovery of proliferation after treatment removed: U87, drugs removed at day 6, followed to day 10. How it is done:
U87 (ATCC) cells were cultured under the same conditions as the NG108-15 cells minus the HAT supplement and used at passage 7-10 for experiments.

The test system of experiment [2] is U87 cells. In words: Physiological dye staining of U87 cells (DiBAC4(3), pHrodo Green, LysoSensor Green, Fluo-4 AM). In kind it is cell-based, human. As to the method:
Dye Staining Protocols. For the Live/Dead assay, 1 μM Calcein Green AM and 0.5 μM ethidium homodimer-1 (L3224, ThermoFisher) were added to PBS along with 10 μg/mL of Hoechst to make the staining solution. Half the media was removed from the human neuronal cells that had been incubated with treatments for 3 days and replaced with staining solution. […] Cells were then incubated for 15 min at 37° C. and imaged. For resting membrane potential staining, DiBAC4(3) was used. U87 cells were seeded at 10,000 cells per mL on Matrigel coated plates as described above. Cells were treated with drugs for 6 days with changes in media every other day. On day 6 the media was removed and washed once with dye buffer consisting of Hank's Balanced Salt Solution (HBSS) with 20 mM HEPES at pH 7.4 and then the staining solution, consisting of dye buffer with 2 μM DiBAC4(3) was added to the cells and allowed to incubate for 30 min at 37° C. The staining solution was then removed and fresh staining solution containing the treatments were added to the cells. For cytoplasmic calcium staining, Fluo-4 AM was used. The staining solution consisted of dye buffer with 4 μM Fluo-4 AM and a 1:1 ratio of Pluronic F-127 (20% in DMSO) and allowed to incubate for 30 min at room temperature. The staining solution was then removed, and fresh dye buffer was added and allowed to incubate for 20 min at 37° C. Then dye buffer containing the treatments were added to the cells. For cytoplasmic pH staining, pHrodo Green was used. The staining solution consisted of dye buffer with a 1:1000 dilution of the pHrodo Green stock and a 1:100 dilution of the PowerLoad concentrate (P35373, ThermoFisher). The cells were allowed to incubate for 30 min at 37° C. Staining solution was removed and washed once with dye buffer then fresh dye buffer containing the treatments were added and allowed to incubate for 5 min at 37° C. Calibration curve was done by instead adding the components of the intracellular pH calibration kit (P35379 ThermoFisher). For lysosomal pH staining, LysoSensor Green was used. The staining solution consisted of dye buffer with a 1 μM dilution of LysoSensor Green DND-187 (L7535 ThermoFisher). The cells were incubated as above and staining solution was removed and replaced with dye buffer containing 2.5 μg/mL Hoechst 33342 for 10 min. Hoechst was removed and cells were washed with dye buffer one time before adding dye buffer containing the treatments. Cells were imaged using an EVOS M7000 system outfitted with a GFP filter cube for stains and a DAPI filter for Hoechst. Images were then analyzed using a CellProfiler pipeline.

The test system of experiment [3] is U87 cells. Nature of the experiment: Antibody staining, BrdU and senescence assays in U87 cells. In kind it is cell-based, human. Conditions: U87, 6 days. As to the method:
Antibody Staining, BrdU and Senescence Assays. NG108-15 cells were plated on PEI and Matrigel coated plates at 15,000 or 30,000 cells/mL, U87 cells at 10,000 cells/mL and grown in imaging media for 6 days with drug treatment. Fresh media was added every 2 days. On day 6, cells were fixed with 4% formaldehyde in PBS for 30 minutes for all antibody staining, except for BrdU which was fixed for 15 minutes, and for the senescence assay which was fixed for 20 min using the Senescence Beta-Galactosidase Staining Kit (9860, CellSignaling) and thereafter stained according to manufacturer's protocol. After fixing, cells were washed twice with PBS, and were permeabilized in PBS with 0.3% Triton-X for 15 min then washed again twice with PBS. The cells for the BrdU assay were additionally treated with 1N HCl for 10 min on ice, followed by a treatment with 2N HCl for 50 min at room temp. Cells were then blocked with standard blocking buffer comprised of TBS containing 10% goat serum, 0.1% BSA, and with 0.05% Tween 20 or without detergent for antibodies against phosphorylated proteins or monoclonal antibodies except for Anti-YAP and Anti-BrdU staining, which were done according to manufacturer's protocol. […] Cells were imaged with an EVOS M7000 system, with at least 50% of each well in a 96 well plate imaged and analyzed using a CellProfiler pipeline for measuring integrated intensity, mean intensity, or nuclear to cytoplasmic ratio of mean intensities.

Consider `O=C(Nc1cc(C(F)(F)F)ccc1O)Nc1cc(C(F)(F)F)ccc1O` [NS1643], for which the “fold decrease in cell proliferation to control” value in experiment [1] (U87, 6 days, NS1643 at 50 μM) was 1.7 fold. In experiment [1], the “FUCCI cell cycle proportion” value was “did not show a large change in proportion of cells” and the “recovery of proliferation after treatment removed” value is reported as “high increase in proliferation”. For the same compound, the “resting membrane potential by voltage dye DiBAC4(3)” value with U87 cells [2] (U87, 6 day treated) is “significant hyperpolarization”. Also, in the experiment on U87 cells [2] (U87, 6 days), the “cytoplasmic calcium levels (Fluo-4AM)” value is recorded as “increase cytoplasmic calcium levels” and the “lysosomal pH (LysoSensor Green)” value was “dramatic alkalization of the lysosomes”.
Consider `COc1ccnc(C[S+]([O-])c2nc3ccc(OC(F)F)cc3[nH]2)c1OC` (stereo not drawn) [Pantoprazole, pantoprazole], for which, in the experiment on U87 cells [3], the “NFM and NSE” value is “increased”; the “YAP nuclear to cytoplasmic ratio” value is “not to have a significant effect”; the astrocytic differentiation markers entry was “increased”. Besides, in experiment [1] (U87, 6 days), the “cell proliferation compared to single compound alone” value is “significantly more effective at reducing cell proliferation after 6 days of treatment than TMZ alone”. Also, the “percent reduction in cells compared to control” value in experiment [1] (U87, 6 days of treatment) came to 54%. Further, in experiment [1], the “FUCCI cell cycle proportion” value was “increase in the early S proportion of cells” and the “recovery of proliferation after treatment removed” value was “immediately re-entered the cell cycle”. In the experiment with U87 cells [2] (U87, 6 days), the “lysosomal pH (LysoSensor Green)” value is “did not show an alkalinization of the lysosome” and the “lysosomes (LysoSensor Green signal)” value is recorded as “significant increase in lysosomes”.
